Experimental data from patent US10143748B2, “B-cell reduction using CD37-specific and CD20-specific binding molecules” (Emergent Product Development Seattle, LLC, priority 2005, dated 2018).

How the values were obtained:
[1] = biological target: T1, C1q (Homo sapiens, UniProt P02745+P02746+P02747); assay: FITC C1q binding to reagent-coated Ramos B cells in normal human serum; conditions: normal human serum 1.25-10%, FIG. 3A
T1 construct: normal human serum (NHS, #A113, Quidel Corp., San Diego, Calif.); tissue Quidel Corp. A113; host or cells: normal human serum (purchased), added to reagent-coated Ramos B cells
T1 sequence (P02745 23-245): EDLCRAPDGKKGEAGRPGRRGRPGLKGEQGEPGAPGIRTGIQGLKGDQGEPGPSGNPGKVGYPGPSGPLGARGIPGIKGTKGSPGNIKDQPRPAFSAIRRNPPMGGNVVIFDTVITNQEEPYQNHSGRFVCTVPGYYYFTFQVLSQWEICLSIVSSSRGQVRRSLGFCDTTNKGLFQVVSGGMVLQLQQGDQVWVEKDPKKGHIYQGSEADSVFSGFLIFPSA
T1 sequence (P02746 28-253): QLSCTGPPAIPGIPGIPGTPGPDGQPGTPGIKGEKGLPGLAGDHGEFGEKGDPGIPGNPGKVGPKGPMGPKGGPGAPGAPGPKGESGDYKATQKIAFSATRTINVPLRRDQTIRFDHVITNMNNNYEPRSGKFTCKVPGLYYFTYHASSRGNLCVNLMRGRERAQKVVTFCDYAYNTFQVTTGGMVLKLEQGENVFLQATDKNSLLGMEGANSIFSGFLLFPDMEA
T1 sequence (P02747 29-245): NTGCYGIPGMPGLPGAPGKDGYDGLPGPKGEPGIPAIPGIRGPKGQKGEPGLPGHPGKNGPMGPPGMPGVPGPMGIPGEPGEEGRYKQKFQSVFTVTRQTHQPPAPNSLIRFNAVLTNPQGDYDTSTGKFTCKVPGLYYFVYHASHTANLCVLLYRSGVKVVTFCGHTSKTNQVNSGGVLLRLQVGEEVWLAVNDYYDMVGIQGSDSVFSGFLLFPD
Procedure: C1q binding studies were performed as previously described (Cragg et al., Blood 2004, 103:2738-2743). Briefly, Ramos B-cells in Iscoves media (#12440-053, Gibco/Invitrogen, Grand island, NY) with no serum were plated in 96-well V bottom plates at 5×10^5/well in 100 μl. Cells were incubated with reagents for 15 minutes at 37° C., and normal human serum (NHS, #A113, Quidel Corp., San Diego, Calif.) diluted in Iscoves was then added at a volume of 50 μl to each well for a final concentration of 10, 5, 2.5, or 1.25% human serum. Fifty μl of media was added to the control well. For cobra venom factor (CVF) experiments, CVF was added to human serum complement samples at 20 Units CVF/mL of serum for 90 minutes at 37° C. prior to addition of serum to complement assays, and the dilution of serum by CVF accounted for when making sample dilutions.
The cells plus complement source were incubated for an additional 5 minutes at 37° C., and washed 2 times with cold PBS (#14040-133, Gibco/Invitrogen, Grand Island, N.Y.) via centrifugation and resuspended in 100 μl of PBS. Fifty μl from each well was transferred to a second plate for second step control staining. […] Samples were washed, resuspended in cold PBS, and read immediately on a FACsCalibur flow cytometer and analyzed with Cell Quest software (Becton Dickinson, San Jose, Calif.).

[2] = system: BJAB cells; assay: Annexin V/PI apoptosis analysis, BJAB; type: cell-based
Procedure: Experiments examining the effect of B cell targeted SMIPS on B cell line apoptosis were performed. Each SMIP was tested individually and then in combination. Samples were analyzed at both 24 and 48 hours after initiation of incubation reactions. […] In addition, 20 μg/mL goat anti-human IgG was added to reactions in order to cross link reagents on the cell surface. Cells were then stained with Annexin V-FITC and propidium iodide using the BD Pharmigen Apoptosis Detection Kit I (#556547), and processed according to kit instructions. Briefly, cells were washed twice with cold PBS and resuspended in “binding buffer” at 1×10^6 cells/mL. One hundred microliters of the cells in binding buffer were then stained with 5 μl of Annexin V-FITC and 5 μl of propidium iodide. The cells were gently vortexed and incubated in the dark at room temperature for 15 minutes. Four hundred microliters of binding buffer was then added to each sample. They were then read and analyzed on a FACsCalibur (Becton Dickinson) instrument using Cell Quest software (Becton Dickinson).

[3] = system: B-CLL cells; assay: MTT cell viability of CLL cells with fludarabine and TRU-016; type: cell-based, human; conditions: MTT at 48 hr, TRU-016 with fludarabine, FIG. 27
Procedure: Cells were treated with TRU-016 at dosages ranging from 0.1-100 μg/mL and with fludarabine at dosages ranging from 0-20 μM (see FIG. 27). TRU-016 was provided by Trubion Pharmaceuticals (Seattle, Wash.). Fludarabine (F-araA) was purchased from SIGMA (St. Louis, Mo.). RPMI 1640 media was purchased from Invitrogen (Carlsbad, Calif.). Fluorescein isothiocyanate (FITC)-labeled annexin V, and propidium iodide (P1) were purchased from BD Pharmingen, San Diego, Calif. 13-(4,5-dimethylthiazol-2-yl)-2,5-diphenyltetrazolium bromide (MTT) was purchased from Sigma (St. Louis, Mo.). B-CLL cells were isolated immediately following donation using ficoll density gradient centrifugation (Ficoll-Paque Plus, Amersham Biosciences, Piscataway, N.J.). […]
Cells were treated in vitro as described herein. […] Cell viability was assessed using MTT assays at 48 hr, and apoptosis was measured using Annexin V/PI at 24 hr.
MTT assays were performed to measure cell viability as described herein. […] Samples were measured with a plate reader at 0.D.540. Cell viability was expressed as the percentage of viability compared with media control.
A synergistic effect was determined by use of the isobologram method. […]

[4] = system: DHL-4 B cells; assay: CDC assay on DHL-4 B cells; type: cell-based; conditions: FIG. 7
Procedure: Cells were suspended in Iscoves (#12440-053, Gibco/Invitrogen, Granland, N.Y.) at 5×10E^5 cells/well in 75 μl. […] Binding reactions were allowed to proceed for 45 minutes prior to centrifugation and washing in serum free Iscoves. Cells were resuspended in Iscoves with human serum (#A113, Quidel, San Diego, Calif.) at the indicated concentrations. The cells were incubated 60 minutes at 37° C. Cells were washed by centrifugation and resuspended in 125 μl PBS with 2% FBS (#16140-071, Gibco, Invitrogen, Grand Island, N.Y.), staining media. The cells were transferred to FACS cluster tubes (#4410, CoStar, Corning, N.Y.) and 125 μl staining media with 5 μl propidium iodide (PI, #P-16063, Molecular Probes, Eugene Oreg.) was added. Samples were incubated 15 minutes at room temperature in the dark prior to analysis by flow cytometry using a FACsCalibur and CellQuest software (Becton Dickinson).

[5] = system: CD19 and CD40 positive lymphocytes (B cells); assay: depletion of normal B cells from human PBMC cultures; type: cell-based; conditions: 1 μg/ml, 24 to 72 hours, FIG. 20C
Procedure: Human PBMCs were isolated from whole blood by LSM density centrifugation. […] A portion of the incubation reaction was harvested at 48 hours and again at 72 hours after initiation of the experiment. PBMCs were washed and incubated with FITC anti-CD19, FITC anti-CD40, or FITC anti-CD3 for 45 minutes on ice.

## G28-1 scFv VH11S(SSC—P)H WCH2 WCH3 [TRU-016]
[1]
  FITC C1q binding: does not bind well
[2]; Bjab, 20 μg/mL SMIP, goat anti-human IgG crosslinking
  Annexin V Positive: 30.6
[2]; in the presence of crosslinking, BJAB, Ramos, Daudi, Table 2
  effect on apoptosis of cell lines: more significant effect on apoptosis of cell lines than TRU-015 alone
[3]
  relative cell viability in cells treated with fludarabine: effectively reduced relative cell viability
[4]
  CDC killing of DHL-4 B cells: little or no activity alone
[5]
  depletion of B lymphocytes compared to T lymphocytes: capable of specific depletion of CD37 positive B lymphocytes
